Assay results: US10071951B2, “Liquid cation exchanger” (Evonik Degussa GmbH, priority 2011, dated 2018)

Legend:
E. coli W3110 [1] = details: culture covered with identical volume of solvent, oleic acid volume adapted with LSME
Description: Firstly, a preculture comprising 20 ml LB medium was inoculated in a 100 ml baffled flask with a cryoculture of the corresponding strain. The culture was cultured overnight at 37° C. and with shaking at 200 rpm used on the next day in order to inoculate an identical main culture to an OD of 0.2. The main cultures (each 30 mL of LB medium) were then further incubated under identical conditions. At an OD of 0.4 to 0.5, the main culture was covered with in each case identical volumes (30 ml) of solvent and then further incubated.
To determine the number of CFU (colony-forming units) 0.1 ml samples were taken in the following experiments and diluted in sterile 0.9% NaCl solution. Suitable dilution stages were plated out on LB agar plates. After incubation at 34° C. overnight, the colonies formed were counted and the CFUs determined.
For this, two different concentrations of oleic acid were used and the volume was adapted by adding the corresponding amount of LSME (methyl laurate).
On account of the lower solubility of the unsaturated fatty acid lauric acid, this was used in a smaller amount. The volumes of the different cation exchangers were made the same with the LSME. The number of CFUs was determined at the start, after 4.5 h and after 24 h.

E. coli BL21(DE3) = assay: Toxicity of liquid cation exchangers, CFU determination (Example 2)
Text: 50% DEHPA and lauric acid (15%), each dissolved in LSME and laden equimolar or 25 mol % with ALSME, were contacted as liquid cation exchanger with a E. coli BL21 (DE3) strain, and the influence of these two compounds on the ability of the strain to form colonies, expressed in CFUs, was investigated.

E. coli W3110 [2] = assay: Reduction in the toxicity of ALSME by contacting with a liquid cation exchanger, CFU determination (Example 4); details: ALSME 0.2% (w/v) dissolved in aqueous systems, no organic phase
Description: Before the determination of the CFU was able to be carried out, a plate LB (10 g/L peptone from casein, 5 g/L yeast extract, 10 g/L NaCl) was streaked with E. coli BW3110 and incubated for 24 h. On the evening of the following day, a preculture was inoculated from this previously streaked plate. […] After the incubation of the main culture, the cells were harvested, centrifuged at 5258 g and 4° C. for 10 min and resuspended with an OD600 of 30 in 10 mL 50 mM Kp, buffer at pH 7.4 (or 25 mM HEPES buffer pH 7.4 if CFU determinations were carried out with ALSME). Both buffer solutions used contained 5% glucose (w/v). The bacteria suspension was then transferred to the shake flasks and treated with the respective substance solutions. After thorough mixing has taken place by swirling the flask, 100 μL of the suspension was pipetted out and placed into 900 μL, of previously charged sterile saline. This corresponded to sampling at time point t0. Then followed incubation of the preparations at 250 rpm and 30° C. The CFUs were determined over a period of 22 h. The samples were taken firstly at time points t0, t3, t6 and t22. For some preparations, a further sampling time point t15 was added and, in addition to this, a further additional dilution series was plated out in order to minimize deviations.
The bacteria were firstly resuspended in 5 mL (corresponds to half of the buffer volume). […]

[3] = Removal (reactive extraction) of DAI and DAS from an aqueous phase into a hydrophobic organic phase (Example 3); type: physicochemical
Text: The organic solvents used here are kerosene (K), benzyl benzoate (B), methyl laurate (ML), cis-9-ocitadecen-1-ol (OD). As liquid cation exchangers, oleic acid and D2EHPA were compared in terms of their effect with the respective pure solvent.
The experimental procedure proceeded identically in all cases: the aqueous phase comprised 2% by weight of diamine and the organic phase consisted of the corresponding solvent and 20% by weight of the respective liquid cation exchanger. The volume ratio of the two phases was 1:1 (in each case 4.5 ml). At a constant temperature of T=30° C., the samples were shaken for 2 hours in a water bath. Then, after centrifugation and phase separation, the phases were analyzed. The pH was adjusted in all cases with aqueous ammonia or sulphuric acid.

[4] = test system: E. coli strain BL21 (DE3) Tlr pBT10 pACYC:Duet[TAcv]; assay: Toxicity of liquid cation exchangers in fermentation, oxygen transfer rate (OTR) (Example 5); type: cell-based; details: ion exchanger 10% w/w in methyl laurate; for toxic effect on cells judged from the OTR curve: 150 mL added to fermentation broth, 22 h
Description: The biotransformation of methyl laurate to methyl aminolaurate was tested in an 8-fold parallel fermentation system from DasGip with different ion exchangers.
1 L reactors were used for the fermentation. The pH probes were calibrated using a two-point calibration with measurement solutions of pH 4.0 and pH 7.0. The reactors were filled with 300 mL of water and autoclaved for 20 min at 121° C. in order to ensure sterility. The pO2 probes were then polarized overnight (at least 6 h). On the next morning, the water was removed under the clean bench and replaced by high cell density medium with 50 mg/L kanamycin and 34 mg/L chloramphenicol. Subsequently, the pO2 probes were calibrated with a one-point calibration (stirrer: 600 rpm/gassing: 10 sL/h air) and the feed, correctant and induction means stretches were cleaned by means of clean-in-place. For this, the tubes were flushed with 70% ethanol, then with 1 M NaOH, then with sterile demineralised water, and finally filled with the respective media.
The ALS and ALSME producing E. coli strain BL21 (DE3) Tlr pBT10 pACYC:Duet[TAcv] was firstly grown from cryoculture in LB medium (25 mL in a 100 mL baffled flask) with 50 mg/L kanamycin and 34 mg/L chloramphenicol overnight at 37° C. and 200 rpm for ca. 18 h.
The 3 cultures were combined in a shake flask and the optical density was determined at 7.2. In order to inoculate the reactors with an optical density of 0.1, in each case 4.2 mL were drawn up in a 5 mL syringe and the reactors were inoculated by means of canulae via a septum.
The experiment carried out can be divided into two phases, the cultivation during which the cells should reach a certain optical density, and the subsequent biotransformation during which the expression of the genes required for the biotechnological process for producing ALSME was induced. The pH values were regulated to pH 6.8 on the one hand with ammonia (12.5%). During cultivation and biotransformation, the dissolved oxygen (DO) in the culture was regulated at 30% via stirrer speed and gassing rate. The fermentation was carried out as a feed batch, where the feed start, 5 g/Lh glucose feed (500 g/L glucose with 1% MgSO4*7H2O and 2.2% NH4Cl), was triggered via a DO peak. […] The expression of the transaminase was induced 2 h after feed start via the automatic addition of IPTG (1 mM). The induction of the alk-genes was carried out by the manual addition of DCPK (0.025% v/v) 10 h after feed start. Before the start of the biotransformation, the optical density of the culture broths was determined.
The start of the biotransformation phase was carried out 14 h after feed start. For this, 150 mL of a mixture of methyl laurate and the respective ion exchanger (10% w/w) were added as a batch to the fermentation broth. The ion exchangers used were di(2-ethylhexyl)phosphoric acid (DEHPA), lauric acid, oleic acid, palmitic acid, palmitoleic acid, stearic acid and a mixture of free fatty acids from the saponification of globe thistle oil. In order to provide an amino group donor for the transaminase, at the same time as the addition of the organic phase, 10.7 mL of an alanine solution (125 g/L) were added to the fermentation broth. For the sampling, 2 mL of fermentation broth were removed from the reactor and part of it was diluted 1/20 in an acetone/HCl mixture (c(HCl)=0.1 mol/L) and extracted. Samples were taken from all 8 reactors at 1.25 h, 3 h, 5 h, 20 h, 22 h […] after the start of the biotransformation. The transfer rates for oxygen (OTR=oxygen transfer rate) and carbon (CTR=carbon transfer rate) were determined during the fermentation via offgas analysis on the DasGip systems. The fermentation was ended 22 h after the start of the biotransformation.

E. coli BW3110 = assay: Toxicity of the solvent LSME, CFU determination (Example 1); type: cell-based; details: cells OD600 60 in 10 mL Kp buffer mixed with 5 mL LSME 98% (w/w), 30° C.
Description: The OD600 was 60. […] One dilution stage per preparation was plated out.

[5] = E. coli BL21(DE3), culture covered with identical volume of solvent, oleic acid volume adapted with LSME
[6] = oleic acid 20% by weight, solvent methyl laurate, pH lowered with sulphuric acid

Compound: CCCCC(CC)C(=O)O (centres unmarked) [2-Ethylhexanoic acid]
- Number of CFUs after 22 or 24 h relative to t = 0 h (E. coli W3110 [1]): 0%
- Number of CFUs after 22 or 24 h relative to t = 0 h (E. coli BL21(DE3); [5]): 0%

Compound: COC(=O)CCCCCCCCCCCN [ALSME, methyl 12-aminolaurate]
- effect on the bacteria (E. coli W3110 [2]): bactericidal effect

Compound: NC1COC2C(N)COC12 (centres unmarked) [DAI, diaminoisoiditol]
- degree of extraction ([3]; D2EHPA 20% by weight as liquid cation exchanger, without addition of acid or alkali, pH range 5.4 to 6.2, 30° C., 2 h, phases 1:1): ca. 100%
- maximum degree of extraction [3, 6]: 48%
- maximum degree of extraction ([3]; oleic acid, solvent benzyl benzoate, pH 1.1): 15.3
- maximum degree of extraction ([3]; oleic acid, solvent cis-9-octadecen-1-ol, pH 7.9, neither alkali nor acid added): 85%
- maximum degree of extraction ([3]; oleic acid, solvent kerosene, pH 8.4): 77.5%

Compound: NC1COC2C(N)COC12 (centres unmarked) [DAS, diaminoisosorbitol]
- maximum degree of extraction [3, 6]: 4%
- maximum degree of extraction ([3]; oleic acid, solvent benzyl benzoate, pH 7.3): 61.5%
- maximum degree of extraction ([3]; oleic acid, solvent cis-9-octadecen-1-ol, pH 6 (starting pH reduced with H2SO4)): 5.5%
- maximum degree of extraction ([3]; oleic acid, solvent kerosene, pH 8.5): 85%

Compound: CCCCC(CC)COP(=O)(O)OCC(CC)CCCC (centres unmarked) [DEHPA, di(2-ethylhexyl)phosphoric acid, reference compound]
- toxic effect on cells judged from the OTR curve [4]: high grade toxic effect
- OTR after adding the compound to the culture ([4]; 150 mL, within a short time): 0
- Number of CFUs after 22 or 24 h relative to t = 0 h (E. coli BL21(DE3); E. coli): 0%

Compound: CC(C)CCCCCC(=O)O [Isononanoic acid]
- Number of CFUs after 22 or 24 h relative to t = 0 h (E. coli W3110 [1]): 0%
- Number of CFUs after 22 or 24 h relative to t = 0 h (E. coli BL21(DE3); [5]): 0%

Compound: CCCCCCCCCCCC(=O)OC [LSME, methyl laurate]
- percentage decrease in living cell count (E. coli BW3110; after 22 h): 30.3%
- number of CFU/mL (E. coli BW3110; over a period of 6 h): remained constant
- tolerance by the strains used (E. coli BL21(DE3); preliminary experiments): well tolerated

Compound: CCCCCCCCCCCC(=O)O [Lauric acid]
- toxic effect on cells judged from the OTR curve [4]: notably less toxic than DEHPA
- Number of CFUs after 22 or 24 h relative to t = 0 h (E. coli BL21(DE3); E. coli): 1.2%

Compound: CCCCCCCC/C=C\CCCCCCCC(=O)O [oleic acid]
- toxic effect on cells judged from the OTR curve [4]: even lower toxicity than the saturated fatty acids

Compound: CCCCCCCCCCCCCCCC(=O)O [palmitic acid]
- toxic effect on cells judged from the OTR curve [4]: considerably lower toxic effect

Compound: CCCCCC/C=C\CCCCCCCC(=O)O [palmitoleic acid]
- toxic effect on cells judged from the OTR curve [4]: even lower toxicity than the saturated fatty acids

Compound: CCCCCCCCCCCCCCCCCC(=O)O [stearic acid]
- toxic effect on cells judged from the OTR curve [4]: considerably lower toxic effect
